Reference: US11111253B2, “6-aryl-7-substituted-3-(1H-pyrazol-5-yl)-7H-[1,2,4]triazolo[3,4-b][1,3,4]thiadiazines as inhibitors of the STAT3 pathway with anti-proliferative activity” (UNIVERSITY OF PITTSBURGH—OF THE COMMONWEALTH SYSTEM OF …, priority 2015, dated 2021)

Experiments:
Assay type in all cases: cell-based
[1] = test system: STAT1; assay: STAT1 assay (selectivity); conditions: Table 4
Procedure: (§1) Compound samples (in 3-5 mg quantities) were evaluated in a variety of assays. All compound submissions were fully characterized (1H, 13C, IR, FIRMS), satisfied purity criteria (≥95% LC/MC, ELS).

[2] = test system: STAT3; assay: HCS STAT3 assay; conditions: Table 4
Procedure: as §1

[3] = test system: Cal33 cells; assay: Cal33 growth inhibition; conditions: Table 5; * average of 2 experiments
Procedure: as §1

[4] = test system: OSC19; assay: Growth inhibition OSC19; conditions: Table 6; average of 2 experiments
[5] = test system: FADU; assay: Growth inhibition FADU; conditions: Table 6; average of 2 experiments
[6] = test system: 686LN; assay: Growth inhibition 686LN; conditions: Table 6; average of 2 experiments

## 1-(3-(6-(4-Methoxyphenyl)-7-methyl-7H-[1,2,4]triazolo[3,4-b][1,3,4]thiadiazin-3-yl)-5-phenyl-1H-pyrazol-1-yl)ethanone [8A]
[1]
  IC50: 40.6 ± 7.5 µM

## 1-(5-(6-(4-methoxyphenyl)-7-methyl-7H-[1,2,4]triazolo[3,4-b][1,3,4]thiadiazin-3-yl)-3-phenyl-1H-pyrazol-1-yl)ethanone [8B]
[2]
  IC50: 3.7 µM
[1]
  IC50: > 50 µM

## COc1ccc(C2=Nn3c(nnc3-c3cc(-c4ccc(Cl)cc4)n[nH]3)S[C@@H]2C)cc1 (single isomer, unassigned; ent-1) [24 (ent-1)]
[3]
  GI50: 2.7 µM

## CC1Sc2nnc(-c3cc(-c4ccccc4)n[nH]3)n2N=C1c1ccccc1 (stereo not shown) [compound 21]
[4]
  GI50: 31.3 µM
[5]
  GI50: 32.7 µM
[6]
  GI50: 32.2 µM
